Measured values: patent US20050154042A1, “N-alkyl pyrroles as HMG-CoA reductase inhibitors” (priority 2003, published 2005)
Counter-ions that a name gives are not always drawn.

For `CC(C)n1c(CC[C@@H](O)C[C@@H](O)CC(=O)[O-])c(-c2ccc(F)cc2)c(-c2ccccc2)c1C(=O)N[C@@H](C)c1ccccc1.[Na+]` [Example 115, (3R,5R)-7-[3-(4-Fluoro-phenyl)-1-isopropyl-4-phenyl-5-((S)-1-phenyl-ethylcarbamoyl)-1H-pyrrol-2-yl]-3,5-dihydroxy-heptanoic Acid Sodium Salt], the melting point was 227 to 229 °C (dec.). `CC(C)n1c(CC[C@@H](O)C[C@@H](O)CC(=O)[O-])c(-c2ccc(F)cc2)c(-c2ccccc2)c1C(=O)Nc1cccc(S(N)(=O)=O)c1.[Na+]` [Example 125, (3R,5R)-7-[3-(4-Fluoro-phenyl)-1-isopropyl-4-phenyl-5-(3-sulfamoyl-phenylcarbamoyl)-1H-pyrrol-2-yl]-3,5-dihydroxy-heptanoic Acid Sodium Salt] showed a melting point of 227 to 229 °C. `CC(C)n1c(CC[C@@H](O)C[C@@H](O)CC(=O)[O-])c(-c2ccc(F)cc2)c(-c2ccccc2)c1C(=O)Nc1ccc(S(N)(=O)=O)cc1.[Na+]` [Example 4, (3R,5R)-7-[3-(4-Fluoro-phenyl)-1-isopropyl-4-phenyl-5-(4-sulfamoyl-phenylcarbamoyl)-1H-pyrrol-2-yl]-3,5-dihydroxy-heptanoic Acid Sodium Salt] showed a melting point of 265 to 267 °C. With `CC(C)OC(=O)c1ccc(CNC(=O)c2c(-c3ccccc3)c(-c3ccc(F)cc3)c(/C=C/[C@@H](O)C[C@@H](O)CC(=O)[O-])n2C(C)C)cc1.[Na+]` [Example 149, (3R,5S)-7-[3-(4-Fluoro-phenyl)-5-(4-isopropoxycarbonyl-benzylcarbamoyl)-1-isopropyl-4-phenyl-1H-pyrrol-2-yl]-3,5-dihydroxy-hept-6-enoic Acid Sodium Salt] the melting point was 222 to 224 °C. Work on `Cc1ccnc(NC(=O)c2c(-c3ccc(F)cc3)c(-c3ccc(F)cc3)c(C=O)n2C(C)C)n1` [Example 179, 3,4-bis-(4-fluoro-phenyl)-5-formyl-1-isopropyl-1H-pyrrole-2-carboxylic Acid (4-methyl-pyrimidin-2-yl)-amide] yielded a melting point of 173 to 175 °C. Work on `CCNC(=O)c1c(-c2ccccc2)c(-c2ccc(F)cc2)c(/C=C/[C@@H](O)C[C@@H](O)CC(=O)[O-])n1C(C)C.[Na+]` [Example 159, (3R,5S)-7-[5-Ethylcarbamoyl-3-(4-fluoro-phenyl)-1-isopropyl-4-phenyl-1H-pyrrol-2-yl]-3,5-dihydroxy-hept-6-enoic Acid Sodium Salt] yielded a melting point of 226 to 228 °C. With `CC(C)n1c(CC[C@@H](O)C[C@@H](O)CC(=O)O)c(-c2ccc(F)cc2)c(-c2ccccc2)c1C(=O)NCc1cn2c(n1)CCCC2` (as salt: sodium) [Example 93, (3R,5R)-7-[3-(4-Fluorophenyl)-1-isopropyl-5-[(5,6,7,8-tetrahydro-imidazo[1,2-a]pyridin-2-yl Methyl)carbamoyl]-4-phenyl-1H-pyrrol-2-yl]-3,5-dihydroxyheptanoic Acid Sodium Salt] the melting point was 239 to 241 °C (dec.). Work on `CC(C)n1c(/C=C/[C@@H](O)C[C@@H](O)CC(=O)O)c(-c2ccc(F)cc2)c(-c2ccc(F)cc2)c1C(=O)Nc1ccc(CC(N)=O)cc1` (as salt: sodium) [Example 14, (3R,5S)-7-[5-(4-Carbamoylmethyl-phenylcarbamoyl)-3,4-bis-(4-fluoro-phenyl)-1-isopropyl-1H-pyrrol-2-yl]-3,5-dihydroxy-hept-6-enoic Acid Sodium Salt] yielded a melting point of 220 to 222 °C. `COc1cccc(NC(=O)c2c(-c3ccc(F)cc3)c(-c3ccc(F)cc3)c(CC[C@@H](O)C[C@@H](O)CC(=O)[O-])n2C(C)C)c1.[Na+]` [Example 136, (3R,5R)-7-[3,4-Bis-(4-fluoro-phenyl)-1-isopropyl-5-(3-methoxy-phenylcarbamoyl)-1H-pyrrol-2-yl]-3,5-dihydroxy-heptanoic Acid Sodium Salt] showed a melting point of 215 to 217 °C. With `CC(C)n1c(CC[C@@H](O)C[C@@H](O)CC(=O)O)c(-c2ccc(F)cc2)c(-c2ccc(F)cc2)c1C(=O)Nc1ccc(S(N)(=O)=O)cc1` (as salt: sodium) [Example 11, (3R,5R)-7-[3,4-Bis-(4-fluoro-phenyl)-1-isopropyl-5-(4-sulfamoyl-phenylcarbamoyl)-1H-pyrrol-2-yl]-3,5-dihydroxy-heptanoic Acid Sodium Salt] the melting point was 261 to 263 °C. With `CC(C)n1c(CC[C@@H]2C[C@@H](O)CC(=O)O2)c(-c2ccc(F)cc2)c(-c2ccccc2)c1C(=O)Nc1ccc(C(=O)O)cn1` [Example 124, (2R,4R)-6-({4-(4-Fluoro-phenyl)-5-[2-(4-hydroxy-6-oxo-tetrahydro-pyran-2-yl)-ethyl]-1-isopropyl-3-phenyl-1H-pyrrole-2-carbonyl}-amino)-nicotinic Acid] the melting point was 172 to 174 °C (dec.). In the case of `COC(=O)c1ccc(NC(=O)c2c(-c3ccccc3)c(-c3ccc(F)cc3)c(CC[C@@H](O)C[C@@H](O)CC(=O)[O-])n2C(C)C)nc1.[Na+]` [Example 118, (3R,5R)-6-{[5-(6-Carboxy-3,5-dihydroxy-hexyl)-4-(4-fluoro-phenyl)-1-isopropyl-3-phenyl-1H-pyrrole-2-carbonyl]-amino}-nicotinic Acid Methyl Ester Sodium Salt], the melting point is reported as 188 to 190 °C (dec.). For `CC(C)n1c(CCC(O)C[C@@H](O)CC(=O)[O-])c(-c2ccc(F)cc2)c(-c2ccccc2)c1C(=O)Nc1ccccc1.[Na+]` (stereo partly drawn) [Example 3, (3R)-7-[3-(4-Fluoro-phenyl)-1-isopropyl-4-phenyl-5-phenylcarbamoyl-1H-pyrrol-2-yl]-3,5-dihydroxy-heptanoic Acid Sodium Salt], the melting point was 240 to 242 °C. For `CC(C)n1c(/C=C/[C@@H](O)C[C@@H](O)CC(=O)[O-])c(-c2ccc(F)cc2)c(-c2ccccc2)c1C(=O)Nc1cccc(S(N)(=O)=O)c1.[Na+]` [Example 126, (3R,5S)-7-[3-(4-Fluoro-phenyl)-1-isopropyl-4-phenyl-5-(3-sulfamoyl-phenylcarbamoyl)-1H-pyrrol-2-yl]-3,5-dihydroxy-hept-6-enoic Acid Sodium Salt], the melting point was 225 to 227 °C. Compound `CC(C)n1c(CC[C@@H](O)C[C@@H](O)CC(=O)[O-])c(-c2ccc(F)cc2)c(-c2ccc(F)cc2)c1C(=O)Nc1cccc(O)c1.[Na+]` [Example 135, (3R,5R)-7-[3,4-Bis-(4-fluoro-phenyl)-5-(3-hydroxy-phenylcarbamoyl)-1-isopropyl-1H-pyrrol-2-yl]-3,5-dihydroxy-heptanoic Acid Sodium Salt] has a melting point of 220 to 222 °C. `CC(C)n1c(CC[C@@H](O)C[C@@H](O)CC(=O)[O-])c(-c2ccc(F)cc2)c(-c2ccccc2)c1C(=O)NCc1ccc(C(=O)[O-])cc1.[Na+].[Na+]` [Example 164, (3R,5R)-4-({[5-(6-Carboxy-3,5-dihydroxy-hexyl)-4-(4-fluoro-phenyl)-1-isopropyl-3-phenyl-1H-pyrrole-2-carbonyl]-amino}-methyl)-benzoic Acid Disodium Salt] gave a melting point of 255 to 260 °C. `CC(C)n1c(CC[C@@H](O)C[C@@H](O)CC(=O)[O-])c(-c2ccc(F)cc2)c(-c2ccccc2)c1C(=O)Nc1cccc(C(=O)N(C)C)c1.[Na+]` [Example 108, (3R,5R)-7-[5-(3-Dimethylcarbamoyl-phenylcarbamoyl)-3-(4-fluoro-phenyl)-1-isopropyl-4-phenyl-1H-pyrrol-2-yl]-3,5-dihydroxy-heptanoic Acid, Sodium Salt] gave a melting point of 156 to 205 °C.
